From patent US9670482B2, “Multispecific peptides” (BICYCLE THERAPEUTICS LIMITED, priority 2009, dated 2017)
Like-named read-outs stand apart in the source and are kept apart here. Residues, ends and D or L forms follow the SMILES beside them. No end group written: not given here.

What was measured:
[1] = biological target: bovine serum albumin (BSA) (Bos taurus, UniProt P02769); test: Fluorescence anisotropy titration with BSA
Excerpt: For determining the affinity constant (Kd) of a fluorophore to target protein, we chose fluorescence anisotropy titrations.
Excitation was specific for coumarin (328 nm), and emission at 393 nm.
To determine whether a neighbouring group (here, Gly) on Fmoc affects binding to BSA, a similar experiment was run with Fmoc-Gly-OH (Nova Biochem). The intrinsic fluorescing properties of Fmoc were used for the anisotropy experiments.
To determine whether a neighbouring hydrophobic bulky group has an enhancing or adverse effect on BSA binding, Fmoc-Phe-OH was tested as above.
The solid phase resin employed was PAL-PEG-PS from Applied Biosystems. […] All peptides were capped with an N-terminal Fmoc, and a C-terminal amide (NH2). After cleavage, peptides were lyophilised, and solubilised in 5 mL of DMF. 100 μl of this was loaded onto an analytical C18 column using a Waters HPLC, using methanol and water (both in the presence of 0.1% TFA) as solvents. […] The peptide concentration in the cuvette was 200 nM.
Excitation was at 299 nm (to minimise Trp absorption), and emission at 320 nm. Slit widths were at 5 and 12 nm, respectively.
Peptide concentrations were estimated by the absorbance at 299 nm, using the extinction coefficient of 4700/M/cm. Excitation was at 299 nm, and emission was set to 320 nm, at slit widths of 5 and 12 nm, respectively.

[2] = biological target: Human Serum Albumin (HSA) (Homo sapiens, UniProt P02768); test: Fluorescence anisotropy titration with HSA; assay type: binding; conditions: 200 nM fluorophore; Hill equation; Kd cannot be determined accurately
[3] = biological target: T1, MDM2 (res 2-125) (Homo sapiens, UniProt Q00987); test: Fluorescence anisotropy titration with MDM2; assay type: binding
T1 construct: made in house
Experimental: Titration experiments were run on a Horiba Jobin Yvon fluorimeter equipped with the Hamilton Microlab titrator controlled by laboratory software. The λex and λem used were 295 nm and 350 nm, respectively. The slit widths for excitation and emission were 5 nm and 15 nm and the integration time 10 s was used for each measurement. The intrinsic fluorescence of tryptophan in peptides 10, 48 was used to measure their binding affinity for MDM2 (res 2-125). The experiments were performed at 23 C.° in PBS, 5 mM DTT. Usually 250 ul of MDM2 (150 uM) was titrated into 1.2 ml of peptide (1 uM). Titration data were analyzed with a standard 1:1 binding model by using the quadratic solution to the equilibrium Kd=[A][B]/[AB]. […] The fitting equation contained an extra term to account for linear drift.
Mdm2 binds the complete PEP48 peptide with good affinity. We now determined whether Mdm2 binding is still functional within the Fmoc-Trp-linker-bicyclic derivative. 250 μL of 18.8 μM Mdm2 (expressed and purified as described in Teufel et al, PNAS 2007) was titrated into 1.2 ml of 500 nM peptide. A strong binding event occurred (Kd<1 μM), however, the data could not be fitted as the Kd was too far below the concentration of peptide employed in the experiment (FIG. 9). Lower concentrations of peptide could not be used due to technical limitations. Accurate determination of dissociation constants of this peptide to Mdm2 will require a better fluorophore than Fmoc (see above), or different methodologies such as isothermal titration calorimetry (ITC).

[4] = biological target: T2, Kallikrein (Homo sapiens, UniProt P03952); test: Kallikrein assays (Z-Phe-Arg-amc substrate); assay type: biochemical
T2 construct: purchased Sigma Aldrich
Experimental: Enzymes were purchased from Sigma Aldrich and substrates from Bachem A G. The assay buffer is composed of 10 mM Tris pH 7.4, 150 mM NaCl, 10 mM MgCl2, 1 mM CaCl2, 0.1% BSA, 0.01% Triton X100 and 5% DMSO. Enzymes are incubated with inhibitors for 30 minutes at RT prior to addition of substrate. All experiments were recorded at 30° C. for 90 minutes.
Assays were performed on a BMG Pherastar plate reader at wavelengths of exc/em 350/450 nm. Kallikrein was bought as a solution of 1080 μg/mL and diluted to a working concentration of 0.3 nM in assay buffer. Substrate Z-Phe-Arg-amc was solubilised at the stock concentration of 10 mM in DMSO and diluted to a working concentration of 300 μM with assay buffer. Inhibitors were solubilised in assay buffer to a stock concentration of 60 μM. 50 μL of each reagent is introduced in wells for a final volume of 150 μL per well. Final concentration of kallikrein in assay is 0.1 nM and substrate is 100 μM.
Final concentrations of inhibitors were: 0.5 nM, 1 nM, 2 nM, 5 nM, 8 nM, 10 nM, 20 nM, 50 nM, 80 nM, 100 nM, 200 nM, 500 nM, 800 nM, 1 μM, 2 μM, 5 μM, 8 μM, 10 μM and 20 μM. The initial rate of the reaction is obtained by plotting fluorescence=f (time) data and by fitting a linear trendline for each concentration of inhibitor. The inhibition curves are obtained by plotting initial rate=f ([I]) and IC50 values can be evaluated.

[5] = Solubility in water; assay type: physicochemical
[6] = system: HCT116 cells; test: Live cell imaging of peptide uptake, HCT116; assay type: cell-based, Human; conditions: fluorescein-labelled TBMB conjugates, 10 μM
Experimental: Two cell lines, HeLa and HCT116, were used for these experiments. HeLa is a Human cervix epitheloid carcinoma and HCT116 is a Human colon carcinoma. Both cell types are widely available; for instance, HeLa cells are available from the UK HPA under catalogue number 93021013. HCT116 cells are available from the UK HPA under catalogue number 91091005.
Cells were seeded in Lab-Tek chambered borosilicate coverglass (Nunc). After culturing for 48 hrs (cells reached 40-60% confluency), media was removed and a fresh media supplemented with 10 μM of peptides was added to the cells. Cells were cultivated for a further 3.5 hrs or 24 hrs. At the end of the incubation time cells were washed 3×DMEM and finally resuspended in DMEM complete media supplemented with 10 mM HEPES buffer. Live cell imaging was performed on a laser scanning microscope (LSM 710, Zeiss), differential interference contrast (DIC) and fluorescent images were taken.
The cells were cultured in Dulbecco's Modified Eagle's Medium (DMEM, GIBCO) and supplemented with 10% (v/v) of heat-inactivated fetal bovine serum, 2 mM L-glutamine, 10 U/ml penicillin, and 100 ug/ml streptomycin (DMEM complete media) at 37° C. in a 5% CO2 atmosphere.

T1 sequence (Q00987 2-125): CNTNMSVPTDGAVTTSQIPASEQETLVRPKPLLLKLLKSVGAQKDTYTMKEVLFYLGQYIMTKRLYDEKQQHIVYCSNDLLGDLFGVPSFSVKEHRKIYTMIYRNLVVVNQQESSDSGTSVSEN
Chain of bovine serum albumin (BSA) (P02769 25-607): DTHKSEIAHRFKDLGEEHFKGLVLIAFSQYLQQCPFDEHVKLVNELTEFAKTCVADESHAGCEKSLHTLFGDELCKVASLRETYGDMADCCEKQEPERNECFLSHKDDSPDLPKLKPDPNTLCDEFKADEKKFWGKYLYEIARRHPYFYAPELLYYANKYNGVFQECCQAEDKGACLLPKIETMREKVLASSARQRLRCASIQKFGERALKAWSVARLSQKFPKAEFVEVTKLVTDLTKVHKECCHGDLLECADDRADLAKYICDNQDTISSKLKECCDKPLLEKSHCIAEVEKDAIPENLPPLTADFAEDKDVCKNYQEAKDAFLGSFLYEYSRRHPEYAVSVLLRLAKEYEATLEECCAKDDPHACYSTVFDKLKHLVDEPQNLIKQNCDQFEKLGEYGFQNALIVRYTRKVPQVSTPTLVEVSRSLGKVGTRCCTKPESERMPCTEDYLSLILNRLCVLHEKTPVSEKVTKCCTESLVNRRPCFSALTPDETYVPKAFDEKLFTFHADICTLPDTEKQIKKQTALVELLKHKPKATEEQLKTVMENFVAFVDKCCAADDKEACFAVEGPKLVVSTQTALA
T2 sequence (P03952 20-638): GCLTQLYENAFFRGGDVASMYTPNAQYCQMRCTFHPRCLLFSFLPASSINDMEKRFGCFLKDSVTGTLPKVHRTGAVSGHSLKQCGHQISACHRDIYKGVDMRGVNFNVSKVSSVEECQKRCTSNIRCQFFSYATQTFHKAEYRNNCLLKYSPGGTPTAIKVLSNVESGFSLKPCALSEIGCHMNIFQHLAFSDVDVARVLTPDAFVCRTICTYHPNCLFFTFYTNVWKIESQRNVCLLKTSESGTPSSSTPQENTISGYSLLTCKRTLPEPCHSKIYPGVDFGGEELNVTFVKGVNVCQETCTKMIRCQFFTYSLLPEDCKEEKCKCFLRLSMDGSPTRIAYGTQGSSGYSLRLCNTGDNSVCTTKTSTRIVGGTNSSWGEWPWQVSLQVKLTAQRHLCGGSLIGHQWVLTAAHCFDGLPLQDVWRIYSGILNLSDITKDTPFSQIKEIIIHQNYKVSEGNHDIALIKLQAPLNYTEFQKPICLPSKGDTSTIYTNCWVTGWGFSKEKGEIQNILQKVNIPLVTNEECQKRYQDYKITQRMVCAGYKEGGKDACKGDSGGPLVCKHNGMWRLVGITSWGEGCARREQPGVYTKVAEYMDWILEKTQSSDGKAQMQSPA
Chain of Human Serum Albumin (HSA) (P02768 25-609): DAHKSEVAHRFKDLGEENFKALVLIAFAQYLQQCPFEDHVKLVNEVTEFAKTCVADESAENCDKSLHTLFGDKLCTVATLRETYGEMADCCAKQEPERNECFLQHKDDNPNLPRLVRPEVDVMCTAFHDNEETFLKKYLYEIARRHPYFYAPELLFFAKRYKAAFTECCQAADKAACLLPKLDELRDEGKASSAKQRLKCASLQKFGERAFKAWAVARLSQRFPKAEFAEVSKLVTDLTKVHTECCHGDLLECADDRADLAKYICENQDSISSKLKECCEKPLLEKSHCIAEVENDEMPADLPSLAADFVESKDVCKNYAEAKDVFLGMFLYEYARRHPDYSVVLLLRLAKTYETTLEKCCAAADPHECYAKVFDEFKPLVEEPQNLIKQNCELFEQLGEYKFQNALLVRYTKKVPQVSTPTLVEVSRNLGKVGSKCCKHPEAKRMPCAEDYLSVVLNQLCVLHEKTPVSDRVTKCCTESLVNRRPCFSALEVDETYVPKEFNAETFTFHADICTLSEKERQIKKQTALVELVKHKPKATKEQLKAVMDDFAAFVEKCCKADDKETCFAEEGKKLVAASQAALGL

With `O=C(NC(Cc1ccccc1)C(=O)O)OCC1c2ccccc2-c2ccccc21` (centres unmarked) [Fmoc-Phe-OH] the Kd [1] was about 0.1 µM and the Kd [2] was about 0.01 µM.
Work on `CC(C)[C@@H]1NC(=O)[C@@H](NC(=O)[C@H](C)NC(=O)CNC(=O)CNC(=O)CNC(=O)[C@H](Cc2c[nH]c3ccccc23)NC(=O)OCC2c3ccccc3-c3ccccc32)CSCc2cc3cc(c2)CSC[C@H](NC(=O)[C@H]([C@@H](C)O)NC(=O)[C@H](Cc2c[nH]c4ccccc24)NC(=O)CNC(=O)[C@H](Cc2ccccc2)NC(=O)[C@H](CCCNC(=N)N)NC1=O)C(=O)N[C@@H](CO)C(=O)N[C@@H](CC(=O)O)C(=O)N[C@@H](CCCNC(=N)N)C(=O)N[C@@H](Cc1ccccc1)C(=O)N[C@@H](CCCNC(=N)N)C(=O)N[C@@H](CC(N)=O)C(=O)N[C@H](C(=O)NCC(N)=O)CSC3` [FmocPEP48L1-PK15L1 bicyclic] (HELM PEPTIDE1{[O=C(OCC1c2ccccc2-c2ccccc21)[*:2]].W.G.G.G.A.C.V.R.F.G.W.T.C.S.D.R.F.R.N.C.G.[am]}|CHEM1{[c1c(C[*:1])cc(C[*:3])cc1C[*:2]]}$PEPTIDE1,CHEM1,7:R3-1:R1|PEPTIDE1,CHEM1,14:R3-1:R2|PEPTIDE1,CHEM1,21:R3-1:R3$$$V2.0) yielded a Kd [3] of under 1 µM, a Kd ([3]; read-out: Kd for Mdm2, 18.8 μM Mdm2 titrated into 500 nM peptide, data could not be fitted (FIG. 9)) of under 1 µM and an IC50 ([4]; IC50 for inhibition of kallikrein activity, 0.1 nM kallikrein, 100 μM substrate, 30° C.) of 17 µM. For the same compound, the IC50 ([4]; IC50 for inhibition of kallikrein, preliminary experiment, restated in Example 3) was about 17 µM, the Kd ([1]; Kd for BSA, fluorescence anisotropy in PBS) was about 0.06 µM and the solubility in water [5] was “not well soluble in water”.
Compound `CC(C)[C@@H]1NC(=O)[C@@H](NC(=O)[C@@H](N)CO)CSCc2cc3cc(c2)CSC[C@H](NC(=O)[C@H]([C@@H](C)O)NC(=O)[C@H](Cc2c[nH]c4ccccc24)NC(=O)CNC(=O)[C@H](Cc2ccccc2)NC(=O)[C@H](CCCNC(=N)N)NC1=O)C(=O)N[C@@H](CC(=O)O)C(=O)N[C@@H](CC(N)=O)C(=O)N[C@@H](CO)C(=O)N[C@@H](Cc1c[nH]c2ccccc12)C(=O)N[C@@H](Cc1c[nH]cn1)C(=O)NCC(=O)N[C@H](C(=O)N[C@@H](CCCCN)C(=O)NCC(=O)O)CSC3` [PEP48] (HELM PEPTIDE1{S.C.V.R.F.G.W.T.C.D.N.S.W.H.G.C.K.G}|CHEM1{[c1c(C[*:1])cc(C[*:3])cc1C[*:2]]}$PEPTIDE1,CHEM1,2:R3-1:R1|PEPTIDE1,CHEM1,9:R3-1:R2|PEPTIDE1,CHEM1,16:R3-1:R3$$$V2.0) has a Kd [3] of 0.5 to 0.8 µM.
In the case of “Pep48-D3: SCVRFGWTCDNSWHGCKG with C-terminal DDD (control), N-terminal fluorescein or methoxy-coumarin (SCVRFGWTCDNSWHGCKGDDD; cysteine pairing not given here; also: N-terminal fluorescein or methoxy-coumarin)”, the “cell penetration (fluorescent staining within the cell)” value [6] is reported as “not”.
In the case of “Pep48-R3: SCVRFGWTCDNSWHGCKG with C-terminal RRR, N-terminal fluorescein or methoxy-coumarin (SCVRFGWTCDNSWHGCKGRRR; cysteine pairing not given here; also: N-terminal fluorescein or methoxy-coumarin)”, the “cell penetration (fluorescent staining within the cell)” value [6] is reported as “fluorescent staining within the cell”.
